Reference: US10959432B2, “Microbiocidal oxadiazole derivatives” (Syngenta Participations AG, priority 2016, dated 2021)

What was measured:
[1] = tested on: Glomerella laqenarium (Colletotrichum lagenarium); assay: Fungicidal activity against Glomerella lagenarium (Colletotrichum lagenarium) liquid culture / cucumber / preventative (anthracnose); format: cell-based; details: Colletotrichum orbiculare; 20 ppm in the applied formulation; liquid culture in PDB, 24° C., 3 to 4 days after application; read-out: disease control compared to untreated control (inhibition of growth measured photometrically)
Protocol: Mycelia fragments or conidia suspensions of a fungus prepared either freshly from liquid cultures of the fungus or from cryogenic storage, are directly mixed into nutrient broth. DMSO solutions of the test compound (max. 10 mg/ml) are diluted with 0.025% Tween20 by a factor of 50 and 10 μl of this solution is pipetted into a microtiter plate (96-well format). The nutrient broth containing the fungal spores/mycelia fragments is then added to give an end concentration of the tested compound. The test plates are incubated in the dark at 24° C. and 96% relative humidity. The inhibition of fungal growth is determined photometrically after 2 to 7 days, depending on the pathosystem, and percent antifungal activity relative to the untreated check is calculated.
Example 4: Fungicidal Activity Against Glomerella laqenarium (Colletotrichum lagenarium) Liquid Culture/Cucumber/Preventative (Anthracnose)
Conidia of the fungus from cryogenic storage are directly mixed into nutrient broth (PDB—potato dextrose broth). After placing a (DMSO) solution of test compound into a microtiter plate (96-well format), the nutrient broth containing the fungal spores is added. The test plates are incubated at 24° C. and the inhibition of growth is measured photometrically 3 to 4 days after application.
The following compounds at 20 ppm in the applied formulation give at least 80% disease control in this test when compared to untreated control under the same conditions, which show extensive disease development.

[2] = tested on: Puccinia recondita f. sp. tritici; assay: Fungicidal activity against Puccinia recondita f. sp. tritici / wheat / leaf disc preventative (brown rust); format: in vivo; details: foliar, 200 ppm in the applied formulation, wheat leaf segments cv. Kanzler, preventative (inoculated 1 day after application), assessed 7 to 9 days after application, read-out: disease control compared to untreated control leaf disks
Protocol: (§1) Leaf disks or leaf segments of various plant species are cut from plants grown in a greenhouse. The cut leaf disks or segments are placed in multiwell plates (24-well format) onto water agar. The leaf disks are sprayed with a test solution before (preventative) or after (curative) inoculation. Compounds to be tested are prepared as DMSO solutions (max. 10 mg/ml) which are diluted to the appropriate concentration with 0.025% Tween20 just before spraying. The inoculated leaf disks or segments are incubated under defined conditions (temperature, relative humidity, light, etc.) according to the respective test system. A single evaluation of disease level is carried out 3 to 14 days after inoculation, depending on the pathosystem. Percent disease control relative to the untreated check leaf disks or segments is then calculated. General Examples of Liquid Culture Tests in Well Plates:
Example 1: Fungicidal Activity Against Puccinia recondita f. sp. tritici/Wheat/Leaf Disc Preventative (Brown Rust)
Wheat leaf segments cv. Kanzler were placed on agar in multiwell plates (24-well format) and sprayed with the formulated test compound diluted in water. The leaf disks were inoculated with a spore suspension of the fungus 1 day after application. The inoculated leaf segments were incubated at 19C and 75% relative humidity (rh) under a light regime of 12 hours light/12 hours darkness in a climate cabinet and the activity of a compound was assessed as percent disease control compared to untreated when an appropriate level of disease damage appears in untreated check leaf segments (7 to 9 days after application).
(§2) The following compounds at 200 ppm in the applied formulation give at least 80% disease control in this test when compared to untreated control leaf disks under the same conditions, which show extensive disease development.

[3] = tested on: Puccinia recondita f. sp. tritici; assay: Fungicidal activity against Puccinia recondita f. sp. tritici / wheat / leaf disc curative (brown rust); format: in vivo; details: foliar, 200 ppm in the applied formulation, wheat leaf segments cv. Kanzler, curative (applied 1 day after inoculation), assessed 6 to 8 days after application, read-out: disease control compared to untreated control leaf disks
Protocol: as §1
Example 2: Fungicidal Activity Against Puccinia recondita f. sp. Tritici/Wheat/Leaf Disc Curative (Brown Rust)
Wheat leaf segments cv. Kanzler are placed on agar in multiwell plates (24-well format). The leaf segments are then inoculated with a spore suspension of the fungus. Plates were stored in darkness at 19° C. and 75% relative humidity. The formulated test compound diluted in water was applied 1 day after inoculation. The leaf segments were incubated at 19° C. and 75% relative humidity under a light regime of 12 hours light/12 hours darkness in a climate cabinet and the activity of a compound was assessed as percent disease control compared to untreated when an appropriate level of disease damage appears in untreated check leaf segments (6 to 8 days after application).
as §2

Phakopsora pachyrhizi = assay: Fungicidal activity against Phakopsora pachyrhizi / soybean / leaf disc preventative (Asian soybean rust); format: in vivo; details: foliar, 200 ppm in the applied formulation, soybean leaf disks, preventative (inoculated one day after application), assessed 12 to 14 days after application, read-out: disease control compared to untreated control leaf disks
Protocol: as §1
Example 3: Fungicidal Activity Against Phakopsora pachyrhizi/Soybean/Leaf Disc Preventative (Asian Soybean Rust)
Soybean leaf disks are placed on water agar in multiwell plates (24-well format) and sprayed with the formulated test compound diluted in water. One day after application leaf discs are inoculated by spraying a spore suspension on the lower leaf surface. After an incubation period in a climate cabinet of 24-36 hours in darkness at 20° C. and 75% rh leaf disc are kept at 20° C. with 12 h light/day and 75% rh. The activity of a compound is assessed as percent disease control compared to untreated when an appropriate level of disease damage appears in untreated check leaf disks (12 to 14 days after application).
as §2

O=C(NCC1CC1)c1ccc(-c2noc(C(F)(F)F)n2)cc1Cl [Compound 2b.13, 2-chloro-N-(cyclopropyl-methyl)-4-[5-(trifluoromethyl)-1,2,4-oxadiazol-3-yl]benzamide]
≥ 80%: inhibition at 20 ppm [1] | pest or weed control at 200 ppm [2] | pest or weed control at 200 ppm [3] | pest or weed control at 200 ppm (Phakopsora pachyrhizi)

CCC(C)NC(=O)c1ccc(-c2noc(C(F)(F)F)n2)cc1 (stereo not shown) [Compound 3a.7, N-sec-butyl-4-[5-(trifluoromethyl)-1,2,4-oxadiazol-3-yl]benzamide]
≥ 80%: inhibition at 20 ppm [1] | pest or weed control at 200 ppm [2] | pest or weed control at 200 ppm [3] | pest or weed control at 200 ppm (Phakopsora pachyrhizi)

CCC(COC)NC(=O)c1ccc(-c2noc(C(F)(F)F)n2)cc1 (stereo not shown) [Compound 3a.9, N-[1-(methoxymethyl)propyl]-4-[5-(trifluoromethyl)-1,2,4-oxadiazol-3-yl]benzamide]
≥ 80%: inhibition at 20 ppm [1] | pest or weed control at 200 ppm [2] | pest or weed control at 200 ppm [3] | pest or weed control at 200 ppm (Phakopsora pachyrhizi)

CC(O)CNC(=O)c1ccc(-c2noc(C(F)(F)F)n2)cc1 (stereo not shown) [Compound 3a.10, N-(2-hydroxypropyl)-4-[5-(trifluoromethyl)-1,2,4-oxadiazol-3-yl]benzamide]
≥ 80%: inhibition at 20 ppm [1] | pest or weed control at 200 ppm [2] | pest or weed control at 200 ppm [3] | pest or weed control at 200 ppm (Phakopsora pachyrhizi)

CCOC(C)CNC(=O)c1ccc(-c2noc(C(F)(F)F)n2)cc1 (stereo not shown) [Compound 3a.11, N-(2-ethoxypropyl)-4-[5-(trifluoromethyl)-1,2,4-oxadiazol-3-yl]benzamide]
≥ 80%: inhibition at 20 ppm [1] | pest or weed control at 200 ppm [2] | pest or weed control at 200 ppm [3] | pest or weed control at 200 ppm (Phakopsora pachyrhizi)

COCCN(C(=O)c1ccc(-c2noc(C(F)(F)F)n2)cc1)C(C)C [Compound 3a.12, N-isopropyl-N-(2-methoxyethyl)-4-[5-(trifluoromethyl)-1,2,4-oxadiazol-3-yl]benzamide]
≥ 80%: inhibition at 20 ppm [1] | pest or weed control at 200 ppm [2] | pest or weed control at 200 ppm [3] | pest or weed control at 200 ppm (Phakopsora pachyrhizi)

CC(C)CN(C)C(=O)c1ccc(-c2noc(C(F)(F)F)n2)cc1 [Compound 3a.13, N-isobutyl-N-methyl-4-[5-(trifluoromethyl)-1,2,4-oxadiazol-3-yl]benzamide]
≥ 80%: inhibition at 20 ppm [1] | pest or weed control at 200 ppm [2] | pest or weed control at 200 ppm [3] | pest or weed control at 200 ppm (Phakopsora pachyrhizi)

CCC(O)CNC(=O)c1ccc(-c2noc(C(F)(F)F)n2)cc1 (stereo not shown) [Compound 3a.14, N-(2-hydroxybutyl)-4-[5-(trifluoromethyl)-1,2,4-oxadiazol-3-yl]benzamide]
≥ 80%: inhibition at 20 ppm [1] | pest or weed control at 200 ppm [2] | pest or weed control at 200 ppm [3] | pest or weed control at 200 ppm (Phakopsora pachyrhizi)

CC(=O)CC(C)(C)NC(=O)c1ccc(-c2noc(C(F)(F)F)n2)cc1 [Compound 3a.16, N-(1,1-dimethyl-3-oxo-butyl)-4-[5-(trifluoromethyl)-1,2,4-oxadiazol-3-yl]benzamide]
≥ 80%: inhibition at 20 ppm [1] | pest or weed control at 200 ppm [2] | pest or weed control at 200 ppm [3] | pest or weed control at 200 ppm (Phakopsora pachyrhizi)

CC(C)C(CO)NC(=O)c1ccc(-c2noc(C(F)(F)F)n2)cc1 (stereo not shown) [Compound 3a.18, N-[1-(hydroxymethyl)-2-methyl-propyl]-4-[5-(trifluoromethyl)-1,2,4-oxadiazol-3-yl]benzamide]
≥ 80%: inhibition at 20 ppm [1] | pest or weed control at 200 ppm [3] | pest or weed control at 200 ppm (Phakopsora pachyrhizi)

O=C(NCCCCCl)c1ccc(-c2noc(C(F)(F)F)n2)cc1 [Compound 3a.20, N-(4-chlorobutyl)-4-[5-(trifluoromethyl)-1,2,4-oxadiazol-3-yl]benzamide]
≥ 80%: inhibition at 20 ppm [1] | pest or weed control at 200 ppm [2] | pest or weed control at 200 ppm [3] | pest or weed control at 200 ppm (Phakopsora pachyrhizi)

CCOCCCNC(=O)c1ccc(-c2noc(C(F)(F)F)n2)cc1 [Compound 3a.22, N-(3-ethoxypropyl)-4-[5-(trifluoromethyl)-1,2,4-oxadiazol-3-yl]benzamide]
≥ 80%: inhibition at 20 ppm [1] | pest or weed control at 200 ppm [2] | pest or weed control at 200 ppm [3] | pest or weed control at 200 ppm (Phakopsora pachyrhizi)

O=C(NCCCCO)c1ccc(-c2noc(C(F)(F)F)n2)cc1 [Compound 3a.24, N-(4-hydroxybutyl)-4-[5-(trifluoromethyl)-1,2,4-oxadiazol-3-yl]benzamide]
≥ 80%: inhibition at 20 ppm [1] | pest or weed control at 200 ppm [2] | pest or weed control at 200 ppm [3] | pest or weed control at 200 ppm (Phakopsora pachyrhizi)

CC(C)(O)CNC(=O)c1ccc(-c2noc(C(F)(F)F)n2)cc1 [Compound 3a.27, N-(2-hydroxy-2-methyl-propyl)-4-[5-(trifluoromethyl)-1,2,4-oxadiazol-3-yl]benzamide]
≥ 80%: inhibition at 20 ppm [1] | pest or weed control at 200 ppm [2] | pest or weed control at 200 ppm [3] | pest or weed control at 200 ppm (Phakopsora pachyrhizi)

C=CCN(CC)C(=O)c1ccc(-c2noc(C(F)(F)F)n2)cc1 [Compound 3a.28, N-allyl-N-ethyl-4-[5-(trifluoromethyl)-1,2,4-oxadiazol-3-yl]benzamide]
≥ 80%: inhibition at 20 ppm [1] | pest or weed control at 200 ppm [2] | pest or weed control at 200 ppm [3] | pest or weed control at 200 ppm (Phakopsora pachyrhizi)

CC(C)C(CO)NC(=O)c1ccc(-c2noc(C(F)(F)F)n2)cc1F (stereo not shown) [Compound 3b.18, 2-fluoro-N-[1-(hydroxymethyl)-2-methyl-propyl]-4-[5-(trifluoromethyl)-1,2,4-oxadiazol-3-yl]benzamide]
≥ 80%: inhibition at 20 ppm [1] | pest or weed control at 200 ppm [3]

O=C(NCCCO)c1ccc(-c2noc(C(F)(F)F)n2)cc1F [Compound 3b.23, 2-fluoro-N-(3-hydroxypropyl)-4-[5-(trifluoromethyl)-1,2,4-oxadiazol-3-yl]benzamide]
≥ 80%: inhibition at 20 ppm [1] | pest or weed control at 200 ppm [3] | pest or weed control at 200 ppm (Phakopsora pachyrhizi)

CCOC(=O)CC(C)NC(=O)c1ccc(-c2noc(C(F)(F)F)n2)cc1F (stereo not shown) [Compound 3b.28, ethyl 3-[[2-fluoro-4-[5-(trifluoromethyl)-1,2,4-oxadiazol-3-yl]benzoyl]amino]butanoate]
≥ 80%: inhibition at 20 ppm [1] | pest or weed control at 200 ppm [2] | pest or weed control at 200 ppm [3]

CCCCCCNC(=O)c1ccc(-c2noc(C(F)(F)F)n2)cc1F [Compound 3b.31, 2-fluoro-N-hexyl-4-[5-(trifluoromethyl)-1,2,4-oxadiazol-3-yl]benzamide]
≥ 80%: inhibition at 20 ppm [1] | pest or weed control at 200 ppm [3] | pest or weed control at 200 ppm (Phakopsora pachyrhizi)

CN(C(=O)c1ccc(-c2noc(C(F)(F)F)n2)cc1)c1ccccn1 [Compound 5a.4, N-methyl-N-(2-pyridyl)-4-[5-(trifluoromethyl)-1,2,4-oxadiazol-3-yl]benzamide]
≥ 80%: inhibition at 20 ppm [1] | pest or weed control at 200 ppm [3] | pest or weed control at 200 ppm (Phakopsora pachyrhizi)
